In publication PMC8652888, “Angiogenesis, Anti-Tumor, and Anti-Metastatic Activity of Novel α-Substituted Hetero-Aromatic Chalcone Hybrids as Inhibitors of Microtubule Polymerization” (Frontiers in Chemistry, 2021) one finds IC50 and melting point data, which are given here for ten molecules.

One series concerns U937. The experiment in a line: Antiproliferative activity, CCK-8 assay. Format: cell-based. The following applies: Homo sapiens, U-937. On the procedure:
(§1) The synthesized compounds were first evaluated for their cytotoxic effect on MCF-7 (human breast adenocarcinoma), U937 (histiocytic lymphoma cancer), HepG2 (human liver cancer) cells, and MGC-803 (human gastric cancer) using the SRB and CCK-8 assay. As reference compounds CA-4 and colchicine were included.
(§2) The primary tumor cells were purchased from a professional biomedical company. First, the primary tumor cells were incubated in a cell culture incubator at 37°C and 5% CO2. After the cell fusion reached 85%–95%, subculture was performed, and the tumor cells obtained at this time were used for subsequent related experiments. The CCK-8 method was used to inhibit the proliferation of U937 tumor cells, and the SRB method was used to inhibit the proliferation of MCF7 and HepG2 tumor cells.
The cells in the logarithmic growth phase were seeded in a 96-well plate at 8,000/well, and the drug-containing medium and cell suspension were added to the well. Three wells were added with the blank medium as the blank group. The 96-well plate was incubated for 72 h in a 37°C, 5% CO2 incubator. The 10 μl of CCK-8 dye solution was added to each well, and the incubation continued for 3–4 h.
On the technique in general: Formazan colour is commonly taken as a measure of viable cells.

The test system of the next series is MCF-7. The experiment in a line: Antiproliferative activity, SRB assay. The format is cell-based, human. The following applies: Homo sapiens.
For another series, the system named is HepG2. Briefly: Antiproliferative activity, SRB assay. The conditions noted are these: Homo sapiens, HepG2; 72 h, triplicate, mean ± SD; read-out: IC50 ± SD, HepG2. The format is cell-based, human. On the procedure: as §1, §2
Cells were distributed into 96-well plates with a density of 3 × 10^3–4 × 10^3 cells per well and incubated for 24 h in a 5% CO2 incubator at 37°C, followed by treatment with study compounds at different concentrations at 37°C for 72 h. One hundred microliters of 10% (w/v) trichloroacetic acid was added to each well, fixed at 4°C for 30 min, and dried at 65°C. Then 100 μl of 0.4% SRB was added to each well and stained on a shaker for 20 min at room temperature. The excess dye solution was washed with newly prepared 1% glacial acetic acid and dried at 65°C. One hundred fifty microliters of 10 mM unbuffered Trisbase was added to each well of the plate and shaken for 5 min to dissolve the dye. The microplate reader measured the optical density (OD) at a wavelength of 560 nm.
(Sulforhodamine B stains cellular protein and so reports cell mass.)

For another series, the system named is MGC-803. The experiment in a line: Antiproliferative activity (SRB and CCK-8 assay). The following applies: Homo sapiens. Format: cell-based.
From the text: as §1

[1] abbreviates: 72 h, triplicate, mean ± SD, read-out: IC50 ± SD, U937.
Where [2] appears, read: MCF7, 72 h, 72 h, triplicate, mean ± SD, read-out: IC50 ± SD, MCF-7.
[3] abbreviates: MCF7, supplement raw data, read-out: IC50/MCF.
[4] abbreviates: triplicate, mean ± SD, read-out: IC50 ± SD, MGC-803.
[5] abbreviates: supplement raw data of table 2, read-out: IC50(U937).

Read-outs that look alike come from different tables or passages of the source.
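For IC50 ± SD, MCF-7 in this document: proliferation of MCF7 cells quantified by sulforhodamine B staining, with optical density read at 560 nm.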
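For IC50/MCF in this document: proliferation of MCF7 cells quantified by sulforhodamine B staining, with optical density read at 560 nm.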

As usually defined, the melting point is the temperature of the solid-liquid transition. In turn, `COc1cc(C(=O)/C=C/c2c(C)[nH]c3ccccc23)cc(OC)c1OC` [Compound 6b, (E)-3-(2-methyl-1H-indol-3-yl)-1-(3,4,5-trimethoxyphenyl)prop-2-en-1-one] gave a melting point of 236.7 to 238.2 °C. The IC50 with U937 (setting [1]) was greater than 20 µM. Further, the IC50 in the series with MCF-7 (setting [2]) came to 0.281 ± 0.022 µM. The IC50 with MCF-7 (setting [3]) worked out at 0.281 µM. Besides, in the series on HepG2, the IC50 amounted to 14.11 ± 0.117 µM. Further, the IC50 in the series with MGC-803 (supplement raw data, read-out: IC50/MGC) came to 0.19 µM. The IC50 in the series on MGC-803 (setting [4]) stood at 0.19 ± 0.002 µM.
Take `COc1cc(C(=O)/C=C/c2c(-c3ccccc3)[nH]c3ccccc23)cc(OC)c1OC` [Compound 6c, (E)-3-(2-phenyl-1H-indol-3-yl)-1-(3,4,5-trimethoxyphenyl)prop-2-en-1-one]: the melting point lay within 60.2 to 61.7 °C. Besides, the IC50 in the series with U937 (setting [1]) worked out at 0.601 ± 0.267 µM. Also, the IC50 with U937 (supplement raw data, read-out: IC50/U937) was 0.601 µM. In the series on MCF-7 (setting [2]), the IC50 worked out at 0.313 ± 0.017 µM. Also, the IC50 in the series on MCF-7 (setting [3]) was 0.313 µM. Also, the IC50 with HepG2 amounted to 1.08 ± 0.092 µM. In the series with MGC-803 (setting [4]), the IC50 turned out to be 0.104 ± 0.001 µM.
As for `COc1cc(C(=O)/C(C#N)=C/c2ccc3oc4ccccc4c3c2)cc(OC)c1OC` [Compound 8l, (E)-3-[dibenzo (b,d)furan-2-yl]-2-(3,4,5-trimethoxybenzoyl)acrylonitrile], the melting point was 181.3 to 182.6 °C. In addition, the IC50 with U937 (setting [1]) is greater than 20 µM. Besides, the IC50 in the series on MCF-7 (setting [2]) is greater than 20 µM. In addition, in the series with HepG2, the IC50 is greater than 20 µM.
In the case of `COc1cc(C(=O)/C(C#N)=C/c2ccc3occc3c2)cc(OC)c1OC` [Compound 8m, (E)-3-(benzofuran-5-yl)-2-(3,4,5-trimethoxybenzoyl)acrylonitrile], the melting point was 169.7 to 172.1 °C. Besides, the IC50 with U937 (setting [1]) was greater than 20 µM. Further, in the series with MCF-7 (setting [2]), the IC50 was greater than 20 µM. Further, in the series with HepG2, the IC50 is greater than 20 µM.
Take `COc1cc(C(=O)/C(C#N)=C/c2cc3ccccc3s2)cc(OC)c1OC` [Compound 8o, (E)-3-[benzo(b)thiophen-2-yl]-2-(3,4,5-trimethoxybenzoyl)acrylonitrile]: the melting point was 187.5 to 189.3 °C. Further, the IC50 in the series with U937 (setting [1]) is greater than 20 µM. For the same molecule, the IC50 in the series on MCF-7 (setting [2]) amounted to 14.74 ± 0.141 µM. Moreover, the IC50 in the series on HepG2 amounted to 1.701 ± 0.013 µM.
In the case of `COc1cc(C(=O)/C(C#N)=C/c2csc3ccccc23)cc(OC)c1OC` [Compound 8p, (E)-3-[benzo(b)thiophen-3-yl]-2-(3,4,5-trimethoxybenzoyl)acrylonitrile], the melting point lay within 201.8 to 203.1 °C. The IC50 in the series on U937 (setting [1]) was greater than 20 µM. In the series with MCF-7 (setting [2]), the IC50 was greater than 20 µM. Also, in the series on HepG2, the IC50 was greater than 20 µM.
In turn, `COc1cc(C(=O)/C(C#N)=C/c2ccc3sc4ccccc4c3c2)cc(OC)c1OC` [Compound 8q, (E)-3-[dibenzo (b,d)thiophen-2-yl]-2-(3,4,5-trimethoxybenzoyl)acrylonitrile] came in with a melting point of 199.7 to 201.1 °C. Besides, the IC50 in the series on U937 (setting [1]) was 52.3 ± 3.66 µM. In addition, the IC50 with U937 (setting [5]) is 52.3 µM. Further, the IC50 in the series on MCF-7 (setting [2]) was greater than 20 µM. Besides, in the series with HepG2, the IC50 is greater than 20 µM.
Consider `COc1cc(C(=O)/C(C#N)=C/c2nc3ccccc3n2C)cc(OC)c1OC` [Compound 8r, (E)-3-[1-methyl-1H-benzo (d)imidazol-2-yl]-2-(3,4,5-trimethoxybenzoyl)acrylonitrile], for which the melting point fell in the range of 201.8 to 203.1 °C. For the same molecule, the IC50 in the series on U937 (setting [1]) came to 24.9 ± 2.02 µM. Moreover, in the series on U937 (setting [5]), the IC50 was determined as 24.9 µM. Besides, in the series with MCF-7 (setting [2]), the IC50 is greater than 20 µM. For the same molecule, the IC50 in the series on HepG2 was greater than 20 µM.
Molecule `COc1cc(C(=O)/C(C#N)=C/c2cccc3c2OCO3)cc(OC)c1OC` [Compound 8s, (E)-3-[benzo(d)(1,3)dioxol-4-yl]-2-(3,4,5-trimethoxybenzoyl)acrylonitrile] gave a melting point of 176.3 to 177.8 °C. Also, the IC50 in the series with U937 (setting [1]) was greater than 20 µM. Besides, the IC50 in the series with MCF-7 (setting [2]) is greater than 20 µM. The IC50 in the series on HepG2 was greater than 20 µM.
For `COc1cc(C(=O)/C(C#N)=C/c2cc3c(cc2Br)OCO3)cc(OC)c1OC` [Compound 8t, (E)-3-[6-bromobenzo(d)(1,3)dioxol-5-yl]-2-(3,4,5-trimethoxybenzoyl)acrylonitrile], the melting point was in the range of 207.1 to 209 °C. For the same molecule, in the series with U937 (setting [1]), the IC50 was greater than 20 µM. Besides, the IC50 in the series on MCF-7 (setting [2]) is greater than 20 µM. Moreover, the IC50 in the series on HepG2 was greater than 20 µM.
